Converted amounts (≈) assume the structure as drawn. Where a name gives a salt, the structure may show the parent alone.
Columns and labels:
[1] = system: Bacillus subtilis ATCC 6633; assay: MIC, agar serial dilution test; type: cell-based; settings: ATCC6633; Bacillus subtilis ATCC 6633; 24 hours at 37° C; read-out: MIC
[2] = system: Staphylococcus aureus A55; assay: MIC, agar serial dilution test; type: cell-based; settings: Staphylococcus aureus A55; 24 hours at 37° C; read-out: MIC
[3] = system: Staphylococcus aureus A321; assay: MIC, agar serial dilution test; type: cell-based; settings: Staphylococcus aureus A321; 24 hours at 37° C; read-out: MIC
[4] = system: Streptococcus haemolyticus A266; assay: MIC, agar serial dilution test; type: cell-based; settings: Streptococcus haemolyticus A266; 24 hours at 37° C; read-out: MIC
[5] = system: Streptococcus faecalis L 80; assay: MIC, agar serial dilution test; type: cell-based; settings: Enterococcus faecalis, L80; Streptococcus faecalis L 80; 24 hours at 37° C; read-out: MIC
[6] = system: Diplococcus pneumoniae L 54; assay: MIC, agar serial dilution test; type: cell-based; settings: Streptococcus pneumoniae, L54; Diplococcus pneumoniae L 54; 24 hours at 37° C; read-out: MIC
Brucella melitensis A488 = assay: microbe, parasite or virus in culture; type: cell-based; settings: A488, 24 h
[7] = system: Pasteurella multocida A723; assay: MIC, agar serial dilution test; type: cell-based; settings: Pasteurella multocida A723; 24 hours at 37° C; read-out: MIC
[8] = system: Klebsiella pneumoniae A809; assay: MIC, agar serial dilution test; type: cell-based; settings: Klebsiella pneumoniae A809; 24 hours at 37° C; read-out: MIC
[9] = system: Staphylococcus aureus A 321; assay: prophylactic experiment against an infection in mice; type: in vivo, female mice (Swiss)
Excerpt: B. Activity of the compound of example III in a prophylactic experiment against an infection with Staphylococcus aureus A 321. […] Administered doses: Tested compound dissolved in physiological NaCl-solution. Group A: one dose administered four hours before the intraperitoneal infection Group B: one dose administered two hours before the intraperitoneal infection.

in vivo = assay: in vivo; parameters: species or system rabbits; settings: rabbit, im, 50 mg/kg; for blood level: 4 h
Excerpt: C. Serum levels of the tested compound and dicloxacillin.

serum protein = assay: binding to serum protein; type: in vitro ADME
[10] = system: Staphylococcus aureus A355 (penicillinase-producing); assay: MIC, agar serial dilution test; settings: 24 h
[11] = system: Staphylococcus aureus L160a (penicillinase-producing); assay: MIC, agar serial dilution test; settings: 24 h
[12] = system: Staphylococcus aureus A 321; assay: in vivo infection test in mice; settings: A321, in Mus musculus
[13] = system: Staphylococcus aureus A 2001; assay: in vivo infection test in mice; settings: A2001, in Mus musculus
[14] = system: Staphylococcus aureus A 2000; assay: in vivo infection test in mice; settings: A2000, in Mus musculus
binding to serum protein = type: in vitro ADME; settings: serum protein; read-out: extent bound to serum protein
test organisms = assay: M.I.C. comparison with dicloxacillin; type: cell-based; settings: compared with dicloxacillin
Experimental: Peak blood levels of the two drugs were reached after 1 hour with the tested compound giving levels of 5.4 μg/ml and dicloxacillin 27 μg/ml. After 4 hours, these levels were 2.2 μg/ml and 7.1 μg/ml respectively. […] However, the M.I.C. values for the tested compound were approximately 5 - 10 times less so that the overall result was better and this was reflected in the in vivo results.

[15] = system: Salmonella typhi murium R 172; assay: in vivo infection test in mice; settings: Salmonella enterica, in Mus musculus, ip
[16] = system: Pseudomonas aeruginosa A 1058; assay: in vivo infection test in mice; settings: A1058, in Mus musculus, ip
Proteus mirabilis O.T. = assay: in vivo infection test in mice; settings: in Mus musculus, ip
[17] = A321, ip, 2 h, Group B: one dose two hours before i.p. infection, administration i.p.
[18] = A321, ip, 4 h, Group A: one dose four hours before i.p. infection, administration i.p.
[19] = A321, po, 2 h, Group B: one dose two hours before i.p. infection, administration per os
[20] = A321, po, 4 h, Group A: one dose four hours before i.p. infection, administration per os

Structure (SMILES)	MIC [1]	MIC [2]	MIC [3]	MIC [4]	MIC [5]	MIC [6]	MIC (Brucella melitensis A488)	MIC [7]	MIC [8]	ED50 [9, 17]	ED50 [9, 18]	ED50 [9, 19]	ED50 [9, 20]	Cmax at 1 h (in vivo)	Tmax (in vivo)	concentration at 1 h (in vivo)	concentration at 4 h (in vivo)	blood level (in vivo)	MIC [10]	MIC [11]	further results
Cc1onc(-c2c(Cl)cccc2Cl)c1C(=O)N[C@@H]1C(=O)N2[C@@H]1SC(C)(C)[C@@H]2C(=O)O [Dicloxacillin, reference compound]	0.12 µg/mL (≈ 0.255 µM)	0.06 µg/mL (≈ 0.128 µM)	0.12 µg/mL (≈ 0.255 µM)	0.06 µg/mL (≈ 0.128 µM)	12.5 µg/mL (≈ 26.6 µM)	0.5 µg/mL (≈ 1.06 µM)	> 100 µg/mL	6 µg/mL (≈ 12.8 µM)	25 µg/mL (≈ 53.2 µM)	46.5 to 100 mg/kg	< 21.5 mg/kg	215 to 465 mg/kg	46.5 to 100 mg/kg	27000 ng/mL	1 h	27000 ng/mL	7100 ng/mL	7100 ng/mL	0.5 µg/mL (≈ 1.06 µM)	0.25 µg/mL (≈ 0.532 µM)	concentration at 2 h (in vivo): 18800 ng/mL; binding to serum protein (in words) (serum protein; serum protein): almost completely bound to serum protein; ED50 ([12]; po): 92.6 mg/kg; ED50 ([12]; sc): 126 mg/kg; ED50 ([13]; ip): 1.71 mg/kg; ED50 ([13]; po): 110 mg/kg; ED50 ([13]; sc): 133 mg/kg; ED50 ([14]; ip): 5.84 mg/kg; ED50 ([14]; po): 92.6 mg/kg; ED50 ([14]; sc): 92.6 mg/kg
CC(=O)OCC1=C(C(=O)O)N2C(=O)C(NC(=O)Cc3cc(-c4c(Cl)cccc4Cl)no3)C2SC1 (stereo not shown) [Example III, Sodium salt of 7-{[3-(2,6-dichlorophenyl)-isoxazol-5-yl]acetamido}cephalosporanic acid]	~0.007 µg/mL	0.015 µg/mL	~0.007 µg/mL	~0.007 µg/mL	0.5 µg/mL	0.007 µg/mL	1 µg/mL	1 µg/mL	12.5 µg/mL	< 21.5 mg/kg	21.5 to 46.5 mg/kg	< 21.5 mg/kg	~465 mg/kg	5400 ng/mL	1 h	5400 ng/mL	2200 ng/mL	2200 ng/mL	0.12 µg/mL	0.06 µg/mL	fraction bound to serum protein (binding to serum protein): ~0.5; amount of free drug in the serum compared with dicloxacillin (serum protein; 50 mg/kg intramuscular, rabbits): of the same order; M.I.C. values, times less than dicloxacillin (test organisms): 5 - 10 times; ED50 ([12]; po): 61.9 mg/kg; ED50 ([12]; sc): 5.11 mg/kg; ED50 ([13]; ip): 2.87 mg/kg; ED50 ([13]; po): ~200 mg/kg; ED50 ([13]; sc): > 215 mg/kg; ED50 ([14]; ip): 1.78 mg/kg; ED50 ([14]; po): > 215 mg/kg; ED50 ([14]; sc): 75 mg/kg; ED50 [15]: ~200 mg/kg; ED50 [16]: > 215 mg/kg; ED50 (Proteus mirabilis O.T.): ~200 mg/kg
